Source: patent publication US10781217B2, “Imidazopyridazine compound” (HANMI PHARMACEUTICAL CO., LTD., priority 2017, dated 2020)

Tested on: SK-CO-1 cell line
Assay: Cell growth inhibition on SK-CO-1 cell line (SRB assay)
Type: cell-based
Settings: cultured with compound for 3 days, SRB colorimetric test
Procedure: SK-CO-1 cell line purchased from the American Type Culture Collection (ATCC, USA) was cultured at […] with an EMEM medium (10% FBS, 1% penicillin/streptomycin) under the presence of 5% CO2. The cultured SK-CO-1 cell line was prepared in 5×10^4/100 μl, placed in a 96 well-plate, and cultured for one day. After that, the test compound was stepwise diluted in a ratio of 1/10 from 10 μM to 0.1 nM in the same EMEM medium, and then cultured for 3 days. In order to measure viability of the cell, a sulforhodamine B colorimetric (SRB, sigma Cat. S1402) test method was used. After discarding the medium, 0.1 ml of 10% trichloroacetic acid (TCA, Sigma Cat. T0699) was introduced to each well, and the cell line was fixed for 30 minutes to 1 hour, then washed with distilled water, and exposed in the air to dry the plate. After that, 100 μl of 0.4% SRB solution was introduced to each well, and the cell line was stained for 30 minutes at room temperature, and the plate was washed with distilled water and 1% acetic acid, and then dried in the air. 150 μl of […] trizma base solution was introduced to each well, and after dissolving the solid SRB therein, absorbance was measured at 540 nm using a microplate-reader. The growth inhibition value (GI50) of the cell line was calculated using a GraphPad Prism software.

For “1-(2-(((1^5Z,5Z)-2^5-fluoro-3-aza-1(3,6)-imidazo[1,2-b]pyridazina-2(4,2)pyrimidina-4(1,3)-benzenacyclohexapan-5-en-4^5-yl)oxy)ethyl)piperidin-4-ol [Example 1]”, the GI50 was 0.021 µM.
